From PMC5601180, “Uptake and metabolism of sulphated steroids by the blood–brain barrier in the adult male rat” (Journal of Neurochemistry, 2017)
Read-outs that look alike come from different tables or passages of the source.

Assays:
[1] = Rat brain perfusion in situ: uptake of 3H-steroid sulphates and markers (Vd, Kin, PS); details: for K in, unidirectional transfer coefficient / PS, permeability–surface area product: 0.5 min perfusion; for K in, unidirectional transfer coefficient: corrected for vascular space (sucrose Vd), n ≥ 3; for position of log PS in plot against cLog Poct relative to the line for passively permeating compounds: PS from K in as slope of Vd against time 0.25 to 0.5 min, implies net efflux; for PS, permeability–surface area product: from K in by Renkin–Crone equation with diazepam K in as flow
Procedure: Each animal also received intraperitoneal heparin, 10 000 U/kg. Body temperature was maintained at 37°C with a heating pad.
For analysis of free and sulphated steroids and for steryl‐sulfate sulfohydrolase (EC 3.1.6.2; trivial name steroid sulphatase) assays, both hemispheres were perfused, via right and left common carotid arteries, and 0.8 mM MgCl2 replaced 0.8 mM MgSO4 in the solution. The perfusate was delivered at a constant rate of 6 mL/min for hemi‐perfusions and 12 mL/min for bilateral perfusions, maintaining a net perfusion pressure of 40–70 mm Hg.
The remaining tissue of the right hemisphere was homogenised and samples (~50 mg) taken in triplicate (“remainder samples”). Triplicate samples of the perfusate were also taken. Samples were weighed into vials and dissolved (48 h at 20°C) in 0.5 mL Solvable before addition of 4.5 mL Optiphase 2 scintillation fluid for counting of radioactivity.
Brain uptake was calculated as a volume of distribution V d, where V d (μL/g) = (dpm/g tissue)/(dpm/μL perfusate). The unidirectional transfer coefficients, (K in, μL/g/min), for DHEAS and for PregS were calculated from the V d at 0.5 min, corrected with the V d for the vascular space marker sucrose.

[2] = Bilateral brain perfusion, capillary depletion and separation of free and sulphated 3H-steroids; format: in vivo, rat; details: for radioactivity in capillary fraction / radioactivity in parenchyma fraction / recovery of total homogenate radioactivity into capillary fraction / recovery of total homogenate radioactivity into parenchyma fraction: after 0.5 min bilateral perfusion, mean ± SEM, n = 5; for percentage of 3H-label as free steroid, parenchyma versus capillary: after 0.5 min perfusion, Fig. 4, p < 0.02; for desulphation on uptake into brain: within 0.5 min of uptake, brain perfusion in situ
Procedure: Brains were bilaterally perfused for 0.5 min with ^3H‐labelled DHEAS 1.25 or 6.0 μCi (0.046 or 0.221 MBq)/mL (13.5 or 64.9 nM) or PregS 1.0 μCi (0.037 MBq)/mL (47.6 nM). The hindbrain was removed and each hemisphere homogenised in 2 vols (w/v) buffer containing (in mM) NaCl 141, KCl 4, NaH2PO4 1, CaCl2 2.8, MgCl2 1, HEPES 10, D‐glucose 10, pH 7.4. A sample of the homogenate of the whole right hemisphere was removed for scintillation counting, and the remainder retained as the whole brain homogenate.
The left hemisphere homogenate was separated into capillary‐enriched and capillary‐depleted fractions by the method of Triguero et al. (1990). For this, an equal volume of 26% dextran (w/w) solution was added to the homogenate and a sample taken for liquid scintillation counting before centrifugation at 5300 g for 15 min at 4°C. The upper layer was taken as the capillary‐depleted fraction and the pellet as the capillary‐enriched fraction.
Before extraction, fractions were sonicated in 5 vols ice‐cold, 5 mM potassium phosphate buffer, pH 7. Small portions (150 μL) were removed for measurement of protein content (Bradford 1976) and total radioactivity. For the latter, homogenate was solubilised (15 min, 20°C) in 10 vols Soluene then bleached (2 h, 50°C) with 0.3 vol hydrogen peroxide before counting in Ecoscint H containing Triton X‐100 (6% v/v), glacial acetic acid (0.6% v/v) and butylated hydroxytoluene (2% w/v). The remainder of each homogenate was extracted as described in detail elsewhere (Ebner et al. 2006; Sujkovic et al. 2009), to give free steroid and steroid sulphate fractions. First, homogenates were extracted into 20 vols ethanol containing acetic acid 3% (v/v). After centrifugation (28 000 g, 30 min, 25°C) to remove denatured protein, the extracts were delipidated by partitioning three times against 10 vols isooctane. Extracts were dried down under vacuum and redissolved in ethanol, which was then diluted to 20% v/v in 5 mM potassium phosphate buffer, pH 7.0 at a total volume of 20 ml. Separation of free and sulphated steroids was achieved by passage through a 60 mg Oasis MAX® cartridge. After washing the cartridge with 5 mL ethanol at 20% v/v in ammonium acetate (20 mM, pH 7), free steroids were eluted in 4 mL ethyl acetate. Passage of 20 mL ethanol at 60% v/v in formate/pyridine buffer (20 mM, pH 3) eluted any steroid glucuronides present. Finally, steroid sulphates were eluted in 30 mL 60% v/v ethanol containing ammonium carbonate 1% (w/v). To measure the radioactivity of each fraction, portions were dried down and then redissolved in Ecoscint H for counting. The remainder was dried down, redissolved in ethanol 96% v/v and stored at −20°C for subsequent analysis by TLC.

[3] = TLC analysis of 3H-steroid metabolites in brain fractions after perfusion; format: in vivo, rat; details: after 0.5 min perfusion with the 3H-steroid sulphate
Source text: For the analysis of ^3H‐steroid metabolites, samples were spotted onto TLC plates for chromatography in the following solvent systems: A (for sulphated steroids), ethyl acetate:ethanol:ammonia (5 : 5 : 1, v/v); B (for free steroids) cyclohexane:n‐butyl acetate (1 : 2, v/v); C (for acetylated steroids), isooctane:ethyl acetate (13 : 7, v/v). Non‐radioactive steroid standards could be visualised by exposure to iodine vapour whereas the ^3H‐steroids were detected by placing the TLC plates in contact with imaging film for subsequent visualisation in a phosphorimager. Additional analysis of the steroid sulphates employed elution from the TLC plate in ammoniated ethanol then drying down and redissolving in sodium acetate buffer, 0.5 M, pH 5.0 for desulphation by incubation with Helix sulphatase (1 mg/mL, 40°C overnight followed by 55°C for 3 h). The resulting free steroids were adsorbed onto a 60 mg Oasis HLB® cartridge and eluted in 5 mL ethyl acetate. This eluate was dried down and analysed by TLC as above for free steroids. Further identification of ^3H‐steroid metabolites was obtained by acetylating them alongside both ^3H‐labelled and non‐radioactive standards. The TLC eluates or standards were dried down and redissolved in 200 μL pyridine. An equal volume of acetic anhydride was then added followed by incubation at 37°C for 2 h. […]

[4] = rats, ref Kishimoto and Hoshi (1972), cited from earlier work
[5] = after intracerebral injection, rats; ref Asaba et al. (2000); cited from earlier work
[6] = Remainder of brain tissue, mean ± SEM

Structure (SMILES)	K in, unidirectional transfer coefficient ([1]; Cerebellum, mean ± SEM)	K in, unidirectional transfer coefficient ([1]; Hippocampus, mean ± SEM)	K in, unidirectional transfer coefficient ([1]; Hypothalamus, mean ± SEM)	K in, unidirectional transfer coefficient ([1]; Medulla, mean ± SEM)	position of log PS in plot against cLog Poct relative to the line for passively permeating compounds [1]	K in, unidirectional transfer coefficient ([1]; Parietal cortex, mean ± SEM)	K in, unidirectional transfer coefficient [1, 6]	K in, unidirectional transfer coefficient ([1]; Striatum, mean ± SEM)	K in, unidirectional transfer coefficient ([1]; Sup. colliculus, mean ± SEM)	radioactivity in capillary fraction [2]	radioactivity in parenchyma fraction [2]	recovery of total homogenate radioactivity into capillary fraction [2]	recovery of total homogenate radioactivity into parenchyma fraction [2]	percentage of 3H-label as free steroid, parenchyma versus capillary [2]	desulphation on uptake into brain [2]	metabolism in brain fractions [3]	further results
C[C@]12CC[C@H](OS(=O)(=O)O)CC1=CCC1C2CC[C@]2(C)C(=O)CCC12 (stereo partly shown) [DHEAS, dehydroepiandrosterone sulphate]	38.6 ± 7.0 µL/g/min	45.4 ± 3.4 µL/g/min	57.7 ± 2.7 µL/g/min	39.4 ± 8.9 µL/g/min	below the 95% confidence limits of the line of best fit for passively permeating compounds	38.4 ± 4.5 µL/g/min	44.8 ± 4.1 µL/g/min	47.2 ± 3.9 µL/g/min	63.5 ± 6.7 µL/g/min	3451 ± 511 dpm/mg protein	3279 ± 388 dpm/mg protein	2.2 ± 0.3%	25.7 ± 2.3%	significantly higher percentage of the free steroid in the parenchyma than in the brain capillaries	> 50%	underwent 17‐hydroxylation to form androstenediol in both the steroid sulphate and the free steroid fractions, with some additional formation of androstenedione in the latter	V d, corrected for sucrose space (vascular volume), control ([1]; brain uptake after 0.5 min perfusion without inhibitors (control of Fig. 3), mean ± SEM, n = 3): 32.47 ± 2.03 µL/g; radiolabel accumulating as free steroid in the brain ([4]; intracardiac injection): ~50%; radiolabel accumulating as free steroid in the brain ([4]; intracerebral injection): 5%; 3H-label appearing in the jugular vein as unchanged steroid sulphate [5]: 90%
CC(=O)[C@H]1CCC2C3CC=C4C[C@@H](OS(=O)(=O)O)CC[C@]4(C)C3CC[C@@]21C (stereo partly shown) [PregS, pregnenolone sulphate]	256.8 ± 43.7 µL/g/min	292.1 ± 24.2 µL/g/min	277.6 ± 48.8 µL/g/min	196.4 ± 39.5 µL/g/min	below the 95% confidence limits of the line of best fit for passively permeating compounds	351.5 ± 9.8 µL/g/min	311.2 ± 20.8 µL/g/min	328.6 ± 41.9 µL/g/min	404.9 ± 30.4 µL/g/min	1856 ± 245 dpm/mg protein	1988 ± 328 dpm/mg protein	8.8 ± 1.8%	68.0 ± 10.0%	significantly higher percentage of the free steroid in the parenchyma than in the brain capillaries	> 50%	no further metabolism of PregS beyond the liberation of free steroid pregnenolone	PS, permeability–surface area product ([1]; Cerebellum): 392.6 ± 103.4 µL/g/min; PS, permeability–surface area product ([1]; Hippocampus): 303.5 ± 26.0 µL/g/min; PS, permeability–surface area product ([1]; Hypothalamus): 295.8 ± 54.8 µL/g/min; PS, permeability–surface area product ([1]; Medulla): 328.6 ± 117.5 µL/g/min; PS, permeability–surface area product ([1]; Parietal cortex): 377.2 ± 11.3 µL/g/min; PS, permeability–surface area product ([1]; Remainder of brain tissue): 326.5 ± 22.9 µL/g/min; PS, permeability–surface area product ([1]; Striatum): 351.5 ± 48.1 µL/g/min; PS, permeability–surface area product ([1]; Sup. colliculus): 419.6 ± 32.5 µL/g/min; V d, corrected for sucrose space (vascular volume), control ([1]; rat, in vivo): 165.63 ± 10.40 µL/g; time at which brain uptake (Vd) reached a maximum ([1]; rat, in vivo): ≤ 1 min
